Experimental findings from PMC9319837, “Microscale Thermophoresis and Molecular Modelling to Explore the Chelating Drug Transportation in the Milk to Infant” (Molecules, 2022) are described below.

For this assay, the target named is T1, human Lf (lactoferrin) (Homo sapiens, UniProt P02788).
T1 construct: gene LTF; full-length, label-free
Kind of assay: label-free microscale thermophoresis (intrinsic fluorescence, […] nm). The class given is binding. Conditions: 0.1 M Tris pH 7.4; Lf 120 nM; CP20 7 nM to 250 μM; 10 min equilibration; iron saturation of Lf not stated. In general terms: In MST a laser heats a spot of the sample, and binding alters the fluorescence response.

T1 sequence (P02788 20-710): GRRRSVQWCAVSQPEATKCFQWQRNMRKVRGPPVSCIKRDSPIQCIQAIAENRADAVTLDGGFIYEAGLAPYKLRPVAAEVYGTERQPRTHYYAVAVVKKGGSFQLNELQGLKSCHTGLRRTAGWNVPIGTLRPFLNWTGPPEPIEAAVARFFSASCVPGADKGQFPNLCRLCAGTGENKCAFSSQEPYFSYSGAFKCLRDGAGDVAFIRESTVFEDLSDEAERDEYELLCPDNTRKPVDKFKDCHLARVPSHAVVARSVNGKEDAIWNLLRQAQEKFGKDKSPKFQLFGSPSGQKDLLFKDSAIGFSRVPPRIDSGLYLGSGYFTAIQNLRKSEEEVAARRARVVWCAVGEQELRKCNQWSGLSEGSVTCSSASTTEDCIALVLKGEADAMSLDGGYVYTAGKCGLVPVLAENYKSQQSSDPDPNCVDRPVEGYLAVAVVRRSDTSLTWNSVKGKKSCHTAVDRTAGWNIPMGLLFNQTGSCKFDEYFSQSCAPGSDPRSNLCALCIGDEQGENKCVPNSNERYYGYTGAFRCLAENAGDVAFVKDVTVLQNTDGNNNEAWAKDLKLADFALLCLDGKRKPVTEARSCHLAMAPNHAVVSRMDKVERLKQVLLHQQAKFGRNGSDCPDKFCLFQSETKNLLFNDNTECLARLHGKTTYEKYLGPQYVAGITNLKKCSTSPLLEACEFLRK

As for `Cc1c(O)c(=O)ccn1C` [deferiprone, 1,2-dimethyl-3-hydroxypyrid-4-one], the Kd is listed as 8.9 × 10^−6 ± 1.6 Molar.
